This is an account of results in patent EP4635944A1, “2-AZABICYCLO[3.1.1]HEPTANE COMPOUND” (Daiichi Sankyo Company, Limited, priority 2022, dated 2024).

This assay concerns the target T1, human OX2R (Homo sapiens, UniProt O43614).
T1 construct: host or cells: CHO-K1 (Chinese Hamster Ovary K1)
T1 sequence (O43614 1-444): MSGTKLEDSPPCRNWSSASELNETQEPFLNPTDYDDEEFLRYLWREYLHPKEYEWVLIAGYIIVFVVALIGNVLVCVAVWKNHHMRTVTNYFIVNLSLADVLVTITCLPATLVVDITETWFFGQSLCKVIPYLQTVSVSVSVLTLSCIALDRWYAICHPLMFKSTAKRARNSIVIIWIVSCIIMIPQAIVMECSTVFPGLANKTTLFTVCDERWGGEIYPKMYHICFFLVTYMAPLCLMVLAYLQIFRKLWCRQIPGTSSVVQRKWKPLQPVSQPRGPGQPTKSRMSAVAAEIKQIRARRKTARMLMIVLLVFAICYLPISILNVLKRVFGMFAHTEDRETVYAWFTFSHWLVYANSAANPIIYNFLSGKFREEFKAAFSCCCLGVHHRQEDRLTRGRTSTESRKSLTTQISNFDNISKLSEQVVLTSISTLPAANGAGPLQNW
The assay is described as follows: Evaluation of OX2R agonist activity (intracellular calcium, CHO-K1 cells with forced expression of human OX2R). It is filed as cell-based. The conditions noted are these: CHO-K1 cells expressing human OX2R; 100% = 5 µM of the reference compound; read-out: hOX2R EC50. As to the method: Evaluation of OX2R agonist activity
Chinese Hamster Ovary K1 (CHO-K1) cells (GenScript) with forced expression of human OX2R were seeded onto a 384 well microplate (Corning) at 7500 cells/well and cultured for 24 hours. 20 µL of the loading buffer (25 mM HEPES containing 1.25 mM of Probenecid and 2.5 µg/mL of Fluo 4-AM at final concentration, Hank's balanced salt solution, 0.06% Pluronic F-127, Quenching buffer) in the Calcium Kit II (DOJINDO LABORATORIES) was added, and the microplate was allowed to stand for 30 minutes. A reference compound (Example435 of WO 2019/027058, N-[(2S,3S)-2-[[3-(3,5-difluorophenyl)-2-fluoro-phenyl]methyl]-1-(2-hydroxy-2-methylpropanoyl)pyrrolidin-3-yl]ethanesulfonamide) or the test compound was added in 10 µL, and changes in intracellular calcium ion concentration were measured using FDSS7000EX (Hamamatsu Photonics K.K.) as a fluorescence intensity ratio obtained upon dual wavelength excitation at 480 nm and 540 nm. Note that the reference compound or test compound was dissolved in DMSO (final concentration of DMSO was 0.5%) and diluted with an assay buffer (20 mM HEPES, Hank's balanced salt solution, 0.1% BSA). The difference between the maximum and minimum fluorescence values between 5 and 7 seconds after the addition of the test compound or reference compound was used as the indicator. The value of wells to which the assay buffer containing no test compound was added was defined as 0%, and the value of wells to which 5 µM of the reference compound was added was defined as 100%. The 50% effective concentration (EC50 value) was determined from the values obtained when various concentrations of the test compound were added. […]
(In general: A change in cytosolic calcium serves as a functional read-out for many receptors and channels.)
The EC50 is the concentration that produces a half-maximal response. In the case of `CC(C)(O)C(=O)N1C2CC(C2)[C@H](NS(C)(=O)=O)[C@@H]1Cc1cccc(-c2cc(F)cc(Cl)c2)c1F` [Example 52, N-[(3S,4S)-3-[(3'-Chloro-2,5'-difluoro[biphenyl]-3-yl)methyl]-2-(2-hydroxy-2-methylpropanoyl)-2-azabicyclo[3.1.1]heptan-4-yl]methanesulfonamide], the EC50 is 34 nM.

`CC(C)(O)C(=O)N1C2CC(F)(C2)[C@H](NS(C)(=O)=O)[C@@H]1Cc1cccc(-c2cccc(C(F)F)c2)c1F` [Example 49, N-[(3S,4R)-3-{[3'-(Difluoromethyl)-2-fluoro[biphenyl]-3-yl]methyl}-5-fluoro-2-(2-hydroxy-2-methylpropanoyl)-2-azabicyclo[3.1.1]heptan-4-yl]methanesulfonamide]: the EC50 was found to be 20 nM. The result for `CN(C)S(=O)(=O)N[C@H]1C2CC(C2)N(C(=O)C(C)(C)O)[C@H]1Cc1cccc(-c2cc(F)cc(F)c2)c1F` (single isomer, unassigned) [Example 2] reads 89 nM; that for `CS(=O)(=O)N[C@H]1C2CC(C2)N(C(=O)C2CC2)[C@H]1Cc1cccc(-c2cc(F)cc(F)c2)c1F` [Example 20, N-{(3S,4S)-2-(Cyclopropylcarbonyl)-3-[(2,3',5'-trifluoro[biphenyl]-3-yl)methyl]-2-azabicyclo[3.1.1]heptan-4-yl}methanesulfonamide], 32 nM. The result for `CC(C)(O)C(=O)N1C2CC(F)(C2)C(NS(C)(=O)=O)C1Cc1cccc(-c2cccc(Cl)c2)c1F` (single isomer, unassigned) [Example 61, N-[(3S,4R)-3-[(3'-Chloro-2-fluoro[biphenyl]-3-yl)methyl]-5-fluoro-2-(2-hydroxy-2-methylpropanoyl)-2-azabicyclo[3.1.1]heptan-4-yl]methanesulfonamide or N-[(3R,4S)-3-[(3'-chloro-2-fluoro[biphenyl]-3-yl)methyl]-5-fluoro-2-(2-hydroxy-2-methylpropanoyl)-2-azabicyclo[3.1.1]heptan-4-yl]methanesulfonamide] reads 40 nM. The result for `[2H]C([2H])([2H])[C@@]([2H])(O)C(=O)N1C2CC(F)(C2)[C@H](NS(=O)(=O)CC)[C@@H]1Cc1cccc(-c2ccccc2)c1F` [Example 90, N-{(3S,4R)-5-Fluoro-3-[(2-fluoro[biphenyl]-3-yl)methyl]-2-[(2R)-2-hydroxy(^2H4)propanoyl]-2-azabicyclo[3.1.1]heptan-4-yl}ethanesulfonamide] reads 21 nM; that for `CC(C(=O)N1C2CC(C2)[C@H](NS(C)(=O)=O)[C@@H]1Cc1cccc(-c2ccccc2)c1F)n1cccn1` (stereo partly drawn) [Example 93, N-{(3S,4S)-3-[(2-Fluoro[biphenyl]-3-yl)methyl]-2-[2-(1H-pyrazol-1-yl)propanoyl]-2-azabicyclo[3.1.1]heptan-4-yl}methanesulfonamide], 23 nM. Consider `CC(C)(F)C(=O)N1C2CC(F)(C2)[C@H](NS(C)(=O)=O)[C@@H]1Cc1cccc(-c2ccccc2)c1F` (single isomer, unassigned) [Example 85], for which the EC50 was 275 nM. Under `C[C@@H](O)C(=O)N1C2CC(C2)[C@H](NS(C)(=O)=O)[C@@H]1Cc1cccc(-c2cccc(C3CC3)n2)c1F` [Example 43, N-{(3S,4S)-3-[3-(6-Cyclopropylpyridin-2-yl)-2-fluorobenzyl]-2-[(2R)-2-hydroxypropanoyl]-2-azabicyclo[3.1.1]heptan-4-yl}methanesulfonamide] stands 49 nM; under `O=C([C@H]1C[C@H]1F)N1C2CC(C2)[C@H](NS(=O)(=O)C2CC2)[C@@H]1Cc1cccc(-c2ccccc2)c1F` [Example 45, N-[(3S,4S)-3-[(2-Fluoro[biphenyl]-3-yl)methyl]-2-{[(1R,2R)-2-fluorocyclopropyl]carbonyl}-2-azabicyclo[3.1.1]heptan-4-yl]cyclopropanesulfonamide], 115 nM.

Regarding `CNC(=O)N1C2CC(C2)[C@H](NS(C)(=O)=O)[C@@H]1Cc1cccc(-c2cc(F)cc(F)c2)c1F` [Example 27, (3S,4S)-N-Methyl-4-[(methylsulfonyl)amino]-3-[(2,3',5'-trifluoro[biphenyl]-3-yl)methyl]-2-azabicyclo[3.1.1]heptane-2-carboxamide], the EC50 was found to be 61 nM.

On to `CS(=O)(=O)N[C@H]1C2CC(C2)N(C(=O)NCC2CC2)[C@H]1Cc1cccc(-c2cc(F)cc(F)c2)c1F` [Example 39, (3S,4S)-N-(Cyclopropylmethyl)-4-[(methylsulfonyl)amino]-3-[(2,3',5'-trifluoro[biphenyl]-3-yl)methyl]-2-azabicyclo[3.1.1]heptane-2-carboxamide], for which the EC50 came out at 94 nM. As for `CS(=O)(=O)N[C@H]1C2CC(C2)N(C(=O)[C@H](O)C2CC2)[C@H]1Cc1cccc(-c2ccccc2)c1F` [Example 64, N-{(3S,4S)-2-[(2R)-2-Cyclopropyl-2-hydroxyacetyl]-3-[(2-fluoro[biphenyl]-3-yl)methyl]-2-azabicyclo[3.1.1]heptan-4-yl}methanesulfonamide], the EC50 was found to be 41 nM. The result for `CCS(=O)(=O)N[C@@H]1[C@H](Cc2cccc(-c3ccccc3)c2F)N(C(=O)[C@@H](C)O)C2CC1(F)C2` (single isomer, unassigned) [Example 83] reads 19 nM. The result for `CS(=O)(=O)N[C@@H]1[C@H](Cc2cc(F)cc(-c3ccccc3)c2F)N(C(=O)[C@H](O)C(F)(F)F)C2CC1(F)C2` [Example 79, N-{(3S,4R)-3-[(2,5-Difluoro[biphenyl]-3-yl)methyl]-5-fluoro-2-[(2S)-3,3,3-trifluoro-2-hydroxypropanoyl]-2-azabicyclo[3.1.1]heptan-4-yl}methanesulfonamide] reads 40 nM; that for `CS(=O)(=O)N[C@H]1C2CC(C2)N(C(=O)[C@H]2CCCO2)[C@H]1Cc1cccc(-c2cc(F)cc(F)c2)c1F` [Example 17, N-{(3S,4S)-2-[(2R)-Tetrahydrofuran-2-ylcarbonyl]-3-[(2,3',5'-trifluoro[biphenyl]-3-yl)methyl]-2-azabicyclo[3.1.1]heptan-4-yl}methanesulfonamide], 108 nM; that for `CCS(=O)(=O)NC1C2CC(C2)N(C(=O)[C@@H](C)O)C1Cc1cc(F)cc(-c2ccccc2)c1F` (single isomer, unassigned) [Example 81], 43 nM. The result for `C[C@@H](O)C(=O)N1C2CC(C2)[C@H](NS(C)(=O)=O)[C@@H]1Cc1cccc(-c2cccc(C(F)F)n2)c1F` [Example 47, N-{(3S,4S)-3-{3-[6-(Difluoromethyl)pyridin-2-yl]-2-fluorobenzyl}-2-[(2R)-2-hydroxypropanoyl]-2-azabicyclo[3.1.1]heptan-4-yl}methanesulfonamide] reads 117 nM. `CS(=O)(=O)N[C@H]1C2CC(C2)N(C(=O)[C@@H]2C[C@H]2F)[C@H]1Cc1cccc(-c2cc(F)cc(F)c2)c1F` [Example 30, N-{(3S,4S)-2-{[(1S,2R)-2-Fluorocyclopropyl]carbonyl}-3-[(2,3',5'-trifluoro[biphenyl]-3-yl)methyl]-2-azabicyclo[3.1.1]heptan-4-yl}methanesulfonamide]: the EC50 turned out to be 148 nM. Turning to `CC(=O)N1C2CC(F)(C2)[C@H](NS(C)(=O)=O)[C@@H]1Cc1cccc(-c2cccc(Cl)c2)c1F` [Example 46, N-{(3S,4R)-2-Acetyl-3-[(3'-chloro-2-fluoro[biphenyl]-3-yl)methyl]-5-fluoro-2-azabicyclo[3.1.1]heptan-4-yl}methanesulfonamide], the EC50 is 106 nM.
